{
  "source": "ChEMBL document CHEMBL1201862",
  "about": "“PubChem BioAssay data set” (2004)",
  "key": {"[1]": {"test": "viability inhibitors of stage V gametocytes – luminescence, dose response (AID 1117278);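 note: gametocytes exposed to compound for 24 hours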", "format": "functional, cell-based"}, "[2]": {"test": "viability loss in human Jurkat cells – cell-based, luminescence, cytotoxicity control for P. falciparum gametocyte viability project, dose response (AID 1117277);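 note: potency reflects loss of cellular ATP meaning fewer viable cells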", "format": "functional"}, "[3]": {"target": "Mitogen-activated protein kinase 10 (Homo sapiens, UniProt P53779)", "sequence (P53779 whole entry)": "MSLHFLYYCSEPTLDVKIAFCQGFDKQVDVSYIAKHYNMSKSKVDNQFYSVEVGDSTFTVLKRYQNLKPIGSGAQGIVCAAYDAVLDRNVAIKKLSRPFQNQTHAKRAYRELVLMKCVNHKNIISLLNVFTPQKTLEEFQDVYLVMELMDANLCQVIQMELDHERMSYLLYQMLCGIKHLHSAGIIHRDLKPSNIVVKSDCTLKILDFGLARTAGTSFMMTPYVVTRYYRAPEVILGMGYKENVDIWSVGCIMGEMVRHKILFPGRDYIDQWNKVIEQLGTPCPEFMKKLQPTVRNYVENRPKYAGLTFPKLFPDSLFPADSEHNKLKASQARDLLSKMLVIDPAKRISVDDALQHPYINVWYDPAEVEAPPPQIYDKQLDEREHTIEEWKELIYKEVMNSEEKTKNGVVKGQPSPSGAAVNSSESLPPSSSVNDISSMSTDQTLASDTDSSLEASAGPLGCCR", "test": "Dose response biochemical screening assay for inhibitors of c-Jun N-Terminal Kinase 3 (JNK3). [Related pubchem assays: 746 ]"}, "[4]": {"target": "T1, Tyrosine-protein phosphatase non-receptor type 7 (Homo sapiens, UniProt P35236)", "T1 sequence (P35236 whole entry)": "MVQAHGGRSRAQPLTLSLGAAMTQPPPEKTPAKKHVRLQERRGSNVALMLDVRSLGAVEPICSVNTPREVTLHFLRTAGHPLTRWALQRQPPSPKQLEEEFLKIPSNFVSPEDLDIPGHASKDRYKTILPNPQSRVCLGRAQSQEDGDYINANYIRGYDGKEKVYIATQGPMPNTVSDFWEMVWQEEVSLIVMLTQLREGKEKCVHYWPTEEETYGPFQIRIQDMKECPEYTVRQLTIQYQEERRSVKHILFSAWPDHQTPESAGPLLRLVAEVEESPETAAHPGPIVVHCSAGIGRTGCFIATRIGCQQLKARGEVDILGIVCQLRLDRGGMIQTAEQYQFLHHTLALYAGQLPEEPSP", "test": "HePTP tyrosine phosphatase activity blockers – biochemical, absorbance, leukemia target, primary screen (AID 521)", "format": "functional"}, "[5]": {"test_system": "BJ", "test": "BJ-TERT fibroblast viability loss – cell-based, RAS-independent, luminescence, dose response (AID 1933)", "format": "functional", "settings": "Homo sapiens"}, "[6]": {"test_system": "BJ", "test": "cells", "format": "functional, cell-based", "settings": "Homo sapiens"}, "[7]": {"test_system": "BJ", "test": "BJ-TERT-LT-ST fibroblast viability loss – cell-based, RAS-independent, luminescence, dose response (AID 1935);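 note: BJ fibroblasts immortalized with TERT plus LT and ST oncogenes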", "format": "functional", "settings": "Homo sapiens"}, "[8]": {"test": "DRD fibroblast viability loss – cell-based, non-viral oncogenic, luminescence, dose response (AID 1934)", "format": "functional", "settings": "Homo sapiens"}, "[9]": {"test": "IC50 of Artemis nuclease activity blockers – biochemical, fluorescence intensity, dose response (AID 720701);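 note: Artemis endonuclease enzyme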", "format": "functional"}, "[10]": {"target": "Large T antigen (Simian virus 40, UniProt P03070)", "sequence (P03070 whole entry)": "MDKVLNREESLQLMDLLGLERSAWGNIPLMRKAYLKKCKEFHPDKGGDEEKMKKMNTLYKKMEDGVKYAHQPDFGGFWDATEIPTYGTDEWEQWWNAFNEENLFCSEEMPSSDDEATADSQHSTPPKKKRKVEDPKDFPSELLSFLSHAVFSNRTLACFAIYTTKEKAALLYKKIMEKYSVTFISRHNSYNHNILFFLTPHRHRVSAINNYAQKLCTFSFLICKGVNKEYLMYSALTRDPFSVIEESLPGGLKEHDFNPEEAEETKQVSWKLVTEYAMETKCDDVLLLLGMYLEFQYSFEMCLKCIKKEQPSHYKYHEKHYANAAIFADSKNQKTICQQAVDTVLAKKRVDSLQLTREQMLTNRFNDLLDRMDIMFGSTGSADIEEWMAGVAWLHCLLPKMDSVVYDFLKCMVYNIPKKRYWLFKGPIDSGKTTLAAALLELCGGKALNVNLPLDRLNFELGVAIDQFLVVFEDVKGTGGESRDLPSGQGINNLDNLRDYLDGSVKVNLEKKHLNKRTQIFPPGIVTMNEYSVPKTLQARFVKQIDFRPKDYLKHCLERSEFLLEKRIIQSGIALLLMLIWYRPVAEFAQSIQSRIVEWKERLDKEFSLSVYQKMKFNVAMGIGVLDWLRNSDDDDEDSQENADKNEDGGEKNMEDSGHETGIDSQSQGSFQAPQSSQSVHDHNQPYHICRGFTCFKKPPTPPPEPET", "format": "functional, Betapolyomavirus macacae"}, "[11]": {"target": "T2, Replicative DNA helicase DnaB (Mycobacterium tuberculosis, UniProt P9WMR3)", "T2 sequence (P9WMR3 whole entry)": "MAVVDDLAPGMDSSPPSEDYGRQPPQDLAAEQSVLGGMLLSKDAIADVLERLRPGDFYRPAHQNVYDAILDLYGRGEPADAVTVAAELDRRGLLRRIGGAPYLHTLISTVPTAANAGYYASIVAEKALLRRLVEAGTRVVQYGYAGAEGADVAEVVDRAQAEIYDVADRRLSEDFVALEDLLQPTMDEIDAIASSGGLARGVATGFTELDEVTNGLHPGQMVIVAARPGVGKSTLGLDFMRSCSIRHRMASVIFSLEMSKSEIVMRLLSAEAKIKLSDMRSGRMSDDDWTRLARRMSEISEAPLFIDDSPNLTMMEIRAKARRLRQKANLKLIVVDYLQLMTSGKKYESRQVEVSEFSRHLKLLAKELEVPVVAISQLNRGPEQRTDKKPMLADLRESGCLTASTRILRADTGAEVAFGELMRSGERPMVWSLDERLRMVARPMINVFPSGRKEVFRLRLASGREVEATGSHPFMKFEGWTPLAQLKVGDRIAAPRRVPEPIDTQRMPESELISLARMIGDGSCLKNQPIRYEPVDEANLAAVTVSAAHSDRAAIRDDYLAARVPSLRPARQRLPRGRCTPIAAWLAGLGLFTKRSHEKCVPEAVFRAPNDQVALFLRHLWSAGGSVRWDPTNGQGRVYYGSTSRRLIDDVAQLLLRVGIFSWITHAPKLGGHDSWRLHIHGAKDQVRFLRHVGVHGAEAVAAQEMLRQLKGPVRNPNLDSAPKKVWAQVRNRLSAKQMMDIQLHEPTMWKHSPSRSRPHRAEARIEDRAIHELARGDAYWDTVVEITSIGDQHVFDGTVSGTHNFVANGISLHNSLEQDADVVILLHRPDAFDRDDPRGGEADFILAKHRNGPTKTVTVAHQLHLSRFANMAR", "test": "DnaB intein splicing inhibitors, dose response, biochemical, cell-free fluorescence (AID 449749)", "format": "functional"}, "[12]": {"target": "T3, Protein RecA (Mycobacterium tuberculosis, UniProt P9WHJ3)", "T3 sequence (P9WHJ3 whole entry)": "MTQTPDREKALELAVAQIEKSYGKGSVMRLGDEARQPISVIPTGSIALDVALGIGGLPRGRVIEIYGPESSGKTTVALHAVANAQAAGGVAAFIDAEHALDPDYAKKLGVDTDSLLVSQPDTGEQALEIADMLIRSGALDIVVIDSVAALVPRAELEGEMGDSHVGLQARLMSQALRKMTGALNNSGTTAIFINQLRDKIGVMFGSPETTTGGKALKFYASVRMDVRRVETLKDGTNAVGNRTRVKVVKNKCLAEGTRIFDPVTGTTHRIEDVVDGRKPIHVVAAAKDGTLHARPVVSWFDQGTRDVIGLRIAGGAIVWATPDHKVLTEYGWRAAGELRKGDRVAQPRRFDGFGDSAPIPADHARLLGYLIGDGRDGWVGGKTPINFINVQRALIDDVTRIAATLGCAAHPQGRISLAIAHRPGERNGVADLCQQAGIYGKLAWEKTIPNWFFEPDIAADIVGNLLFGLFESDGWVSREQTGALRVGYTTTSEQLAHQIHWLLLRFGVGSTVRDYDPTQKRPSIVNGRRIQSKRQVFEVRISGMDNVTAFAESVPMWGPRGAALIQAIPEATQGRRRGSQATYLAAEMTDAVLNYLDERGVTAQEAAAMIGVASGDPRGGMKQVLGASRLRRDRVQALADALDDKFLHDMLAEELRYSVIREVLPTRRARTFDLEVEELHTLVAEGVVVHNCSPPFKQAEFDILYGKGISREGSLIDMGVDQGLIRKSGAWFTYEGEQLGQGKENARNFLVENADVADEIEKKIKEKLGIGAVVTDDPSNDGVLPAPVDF", "test": "Fluorescence Cell-Free Homogeneous Dose Retest to Identify Inhibitors of RecA-Intein Splicing Activity. [Related pubchem assays (depositor defined):AID2097, AID2223, AID489010, AID492950]", "format": "functional"}, "[13]": {"test": "viability loss in THP-1 monocytes – THP-1 cells, cytotoxicity control for Vif-APOBEC3G degradation inhibitor project, dose response (AID 1117359)", "format": "functional", "settings": "THP-1"}},
  "note": "The source made the active and inactive calls.",
  "data": [
    {"smiles": "N#Cc1c(N)nc2c(c1-c1ccncc1)CCCCC2", "values": [
      {"measurement": "IC50", "setting": "[1]", "value": "> 109 µM (inactive)"},
      {"measurement": "IC50", "setting": "[2]", "value": "> 83.4 µM (inactive)"}
    ]},
    {"smiles": "CCOC(=O)c1c(-c2ccc(OC)cc2)n[nH]c1N", "values": [
      {"measurement": "IC50", "setting": "[3]", "value": "63.1 µM (not active)"}
    ]},
    {"smiles": "CNC(=O)C1=NCCCc2cc(OC)c(OC)cc21", "values": [
      {"measurement": "IC50", "setting": "[4]", "value": "> 100 µM (not active)"}
    ]},
    {"smiles": "COc1ccccc1CNC(=O)Nc1cccs1", "values": [
      {"measurement": "IC50", "setting": "[4]", "value": "> 100 µM (not active)"}
    ]},
    {"smiles": "COc1cccc(-c2cn3nc4c(nc3n2)CCCC4)c1", "values": [
      {"measurement": "EC50", "setting": "[5]", "value": "16.2 µM (active)"},
      {"measurement": "EC50", "setting": "[6]", "value": "21.6 µM (active)"},
      {"measurement": "EC50", "setting": "[7]", "value": "> 150 µM (not active)"},
      {"measurement": "EC50", "setting": "[8]", "value": "12.9 µM (active)"},
      {"measurement": "IC50", "setting": "[9]", "value": "> 20 µM (inactive)"}
    ]},
    {"smiles": "N#Cc1sc2nc3c(c(-c4ccco4)c2c1N)CCCC3", "values": [
      {"measurement": "IC50", "setting": "[3]", "value": "68.6 µM (not active)"}
    ]},
    {"smiles": "COc1ccc(Nc2ccc(OC)cc2)cc1", "values": [
      {"measurement": "IC50", "setting": "[10]", "value": "26.2 µM (active)"},
      {"measurement": "AC50", "setting": "[11]", "value": "121 µM (active)"},
      {"measurement": "EC50", "setting": "[12]", "value": "> 380 µM (inactive)"},
      {"measurement": "CC50", "setting": "[13]", "value": "21 µM (active)"}
    ]}
  ]
}
